pIC50, pKd: −log10 of the molar value. Several values for one entry are separate records, joined by “and”; a condition that tells them apart may be missing. Identical values can stand only once.

Data set [1] has as its target T1, SphK1 (Homo sapiens, UniProt Q9NYA1).
T1 construct: His tag; made in house; host or cells: E. coli BL21-Gold (DE3)
The data set is described as follows: Fluorescence binding studies (Trp quenching, modified Stern-Volmer). To be noted: for Binding constant Ka: fluorescence quenching, 25 °C, 4 µM SphK1; for pKd: from fluorescence binding constant, read-out: Dissociation constant KD. How it is done:
Fluorescence quenching experiments were carried out on Jasco spectroflourimeter (FP-6200) using 5 mm quartz cuvette. The temperature was maintained at 25 ± 0.1 °C by external thermostated peltier device. Stock solution of ligands was prepared in DMSO and diluted to a working concentration of 50 µM in Tris buffer just prior to taking measurements. Protein solution (4 µM) was titrated with increasing concentrations of ligand and the fluorescence emission spectrum was recorded in the range of 300–400 nm by keeping the excitation wavelength constant at 280 nm. The excitation and emission slit widths were kept at 10 nm. The final spectra were obtained by subtracting with the corresponding blank. For data analysis, fluorescence intensity at λmax was plotted against [ligand, μM] and then modified Stern-Volmer equation (Eq. 1) was used to derive binding parameters viz., binding constant (Ka) and number of binding sites (n) per molecule of protein for ligand-SphK1 system.1 log(F0−F/F)=logKa+nlog[Q]
To validate our docking results, the binding affinity of selected natural compounds with SphK1 was calculated using fluorescence measurements. A number of molecular interactions, including formation of an excited charge-transfer complex, intersystem crossing to the triplet state, molecular rearrangements, and ground-state complex formation between the fluorophore and quencher can lead fluorescence quenching. […] 4 µM of SphK1 was titrated by the successive addition of selected natural compounds from a 1.0 mM stock solution of ligands. The intrinsic fluorescence spectra were then collected in the range of 300–400 nm by keeping the excitation wavelength at 280 nm. The concentration of ligands was varied from 0 to 50 µM to obtain the saturation point.

A further data set relates to A549 cells. The data set is described as follows: Anti-proliferative potential on lung cancer line. In kind it is cell-based. To be noted: Homo sapiens, data not shown, read-out: IC50, growth inhibition of cancer cells.
The target of data set [2] is T1, SphK1. The data set is described as follows: Isothermal titration calorimetry. The format is binding. Here is the method:
Binding affinity of SphK1 to quercetin was determined by using VP-ITC microcalorimeter from MicroCal, Inc (GE, MicroCal, USA). Protein sample was prepared by extensively dialyzing it against Tris buffer (20 mM Tris-HCl, pH 8.0 and 100 mM NaCl). Stock solution of compound was diluted in the last dialyzing buffer to avoid any baseline error. Equal amount of DMSO (1.0% v/v) was added to the protein solution to prevent signal stability problems during ITC measurements. 15 µM SphK1, which was kept in the sample cell with an effective volume of 2 ml, was titrated with 750 µM of compound filled in the titration calorimetry syringe. A programmed titration was performed with a first false injection of 2 µl followed by 24 successive injections of 10 µl ligand each at 300 seconds interval. The temperature of the sample and reference cell was isothermally maintained at 25 °C, and the syringe was stirred at 307 rpm during the experiment. Heat of dilution of compound into buffer solution (no protein) was also measured and subtracted from the protein’s titration data. The binding isotherm obtained was fitted with in-built origin ‘binding site’ model to derive the thermodynamic parameters viz., stoichiometry of binding (n), enthalpy change (ΔH) and association constant (Ka).
(In general: Isothermal titration calorimetry measures the heat released or taken up as one component is titrated into another.)

Data set [3] addresses T1, SphK1. The data set can be described thus: ATPase inhibition assay (malachite green, BIOMOL Green). In kind it is biochemical. To be noted: 2 µM SphK1, 150 µM ATP, 25 °C; read-out: IC50 (50% of ATPase inhibition). How it is done: ATPase activity of purified SphK1 was checked by malachite green-based (BIOMOL® Green reagent, Enzo Life sciences) microtitre-plate assay. Fixed (2 µM) amount of protein was incubated with assay buffer (20 mM Tris-HCl, pH 8.0 and 100 mM NaCl) containing 10 mM MgCl2 and increasing concentrations of ATP for 30 minutes at 25 °C. The reaction was terminated by the addition of malachite green reagent followed by incubation for 20 minutes for colour development. The absorbance of each well was measured at 620 nm on a multiplate ELISA reader. Standard phosphate curve was prepared as described by manufacturer’s protocol and used to quantity the amount of free inorganic released from ATP by kinase activity. Thereafter, ATPase inhibition assay for SphK1 was performed in the presence of compounds. Firstly, Protein (2 µM) was pre-incubated with increasing concentrations of ligand at room temperature for 60 minutes in 96-well plate. 10 mM MgCl2 and 150 µM freshly prepared ATP was then added to the reaction mixture and incubated for 30 minutes at 25 °C. To terminate the reaction, BIOMOL® reagent was added and incubated for 20 minutes followed by absorbance measurement at 620 nm. The amount of free inorganic released was determined with the help of standard phosphate curve as described. All the measurements were performed in triplicates.

A further data set relates to HepG2 cells. The data set can be described thus: Anti-proliferative potential on liver cancer line. The format is cell-based. The note with it: Homo sapiens, data not shown, read-out: IC50, growth inhibition of cancer cells.
Setting [4] is: ITC, 25 °C, sequential binding, site 1.
Where [5] appears, read: ITC, 25 °C, sequential binding, site 2.
[6] abbreviates: ITC, 25 °C, sequential binding, site 3.
Where [7] appears, read: ITC, 25 °C, single binding site model.

T1 sequence (Q9NYA1 whole entry): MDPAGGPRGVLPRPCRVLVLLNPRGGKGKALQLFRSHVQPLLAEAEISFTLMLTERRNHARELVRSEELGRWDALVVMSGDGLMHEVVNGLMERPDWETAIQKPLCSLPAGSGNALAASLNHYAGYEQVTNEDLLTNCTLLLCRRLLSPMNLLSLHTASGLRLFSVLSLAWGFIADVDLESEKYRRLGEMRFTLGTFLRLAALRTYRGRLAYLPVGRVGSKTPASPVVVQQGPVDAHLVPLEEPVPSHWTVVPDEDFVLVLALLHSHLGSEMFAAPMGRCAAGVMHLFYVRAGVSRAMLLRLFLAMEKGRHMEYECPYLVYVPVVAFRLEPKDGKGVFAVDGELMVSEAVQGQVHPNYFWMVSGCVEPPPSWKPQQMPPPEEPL

Regarding `O=c1c(O)c(-c2ccc(O)c(O)c2)oc2cc(O)cc(O)c12` [Quercetin, quercetin], on SphK1 [1], the “Binding constant Ka” value is 438000 M⁻¹ and the pKd is 5.64. For the same molecule, in the data set on A549 cells, the negative-log IC50 (pIC50) is 4.25. This molecule also had a pKd at SphK1 [2] of 3.90. At SphK1 [2] (setting [4]), the “Association constant Ka1” value is recorded as “Ka1 = 5.89 × 10^4 ± 5.0 × 10^3 M^−1”, the “Enthalpy Change ΔH1” value is reported as “ΔH1 = −5204 ± 435 cal/mol” and the ΔS1 entry is listed as “ΔS1 = 4.37 cal/mol/deg”. In addition, the pKd at SphK1 [2] (ITC, 25 °C, sequential binding, site 1, read-out: Dissociation Constant KD1) was 4.77. On SphK1 [2] (setting [5]), the “Association constant Ka2” value is recorded as “Ka2 = 2.36 × 10^5 ± 8.0 × 10^3 M^−1”, the “Enthalpy Change ΔH2” value is “ΔH2 = −9883 ± 696 cal/mol” and the ΔS2 entry is “ΔS2 = −8.57 cal/mol/deg”. In addition, the pKd on SphK1 [2] (ITC, 25 °C, sequential binding, site 2, read-out: Dissociation Constant KD2) is 5.38. Besides, on SphK1 [2] (setting [6]), the “Association constant Ka3” value is “Ka3 = 1.06 × 10^4 ± 4.0 × 10^2 M^−1”, the “Enthalpy Change ΔH3” value is reported as “ΔH3 = 3829 ± 2.18 × 10^3 cal/mol” and the ΔS3 result is on record as “ΔS3 = 32.3 cal/mol/deg”. In addition, on SphK1 [2] (ITC, 25 °C, sequential binding, site 3, read-out: Dissociation Constant KD3), the pKd is 4.03. The ΔS4 result at SphK1 [2] (ITC, 25 °C, sequential binding, site 4) is listed as “ΔS4 = −294 cal/mol/deg”. Besides, the pKd at SphK1 [2] (ITC, 25 °C, sequential binding, site 4, read-out: Dissociation Constant KD4) is 4.97. In addition, the negative-log IC50 (pIC50) at SphK1 [3] was about 5.55. Also, the pIC50 in the data set with HepG2 cells was 4.31. The “Toxicity towards normal counterparts” value with HEK293 cells was “did not impart any toxicity”.

For `COc1cc(CNC(=O)CCCC/C=C/C(C)C)ccc1O` [Capsaicin, capsaicin], at SphK1 [1], the “Binding constant Ka” value is 15300 M⁻¹ and the pKd was 4.18. For the same molecule, at SphK1 [2] (setting [7]), the “Association constant Ka” value came out at 102000 ± 66200 M⁻¹, the “Enthalpy Change ΔH” value was −1.00 × 10^4 ± 727.6 cal/mol and the ΔS is −10.8 cal/mol/deg. Further, the pKd on SphK1 [2] (ITC, 25 °C, single binding site model, read-out: Dissociation Constant KD) was 5.01. For the same molecule, the pIC50 at SphK1 [3] was ~4.57 and 4.57.

What is called pIC50 is the IC50 on a negative log10 scale, so that one unit is a factor of ten.

The values are drawn from PMC6904568, “Evaluation of binding and inhibition mechanism of dietary phytochemicals with sphingosine kinase 1: Towards targeted anticancer therapy” (Scientific Reports, 2019).
